One test deals with Dinitrofluorobenzene-Induced Ear Edema Reaction in Mouse. In words: Suppressive action on dinitrofluorobenzene-induced ear edema reaction in mouse (Test Example 1, acetone solvent). It counts as in vivo. The following applies: BALE/c mice (female); test compound 1% (w/v %) in acetone applied to front and back of auricle 1 hr before and 3 hr after induction; auricle thickness 24 hr after induction. As to the method:
5-Week to 6-week old BALE/c mice (female, supplied by CHARLES RIVER LABORATORIES JAPAN, INC) were purchased and, after quarantine and habituation, those showing satisfactory body weight increase and free of abnormal appearance were used to start the test from 7 weeks of age. The animals were housed and bred in plastic cages (6 mice per cage) in a breeding chamber set at room temperature 19-25° C., humidity 30-70%, 12 hr illumination per day (7 a.m.-7 p.m.), with free access to a commercially available solid feed and water.
(§1) One day before the test, the abdomen was shaved, and a solution of dinitrofluorobenzene (manufactured by Nacalai Tesque) in acetone (manufactured by Wako Pure Chemical Industries, Ltd.) {concentration 0.5% [weight (w)/volume (v) %]} was applied to the shaved part of BALE/c mice by 100 μL for sensitization. On day 5 after sensitization, a dinitrofluorobenzene-acetone solution [concentration 0.2% (w/v %)] was applied to the front and the back of the auricle by 10 μL each (total 20 μL) to induce reaction. A test compound dissolved in acetone to the concentration of 1% (w/v %) was applied to the front and the back of the auricle 1 hr before and 3 hr after the induction of reaction each by 10 μL (total 20 μL). After the application, the applied part was air-dried by a dryer.
(§2) A group administered with the test compound by coating was taken as a test compound administration group, and a group administered with acetone (solvent) by coating instead of the test compound was taken as a solvent administration group. In addition, a group free of sensitization and induction of reaction and administered with acetone by coating instead of the test compound was taken as a normal group. The thickness of the auricle was measured immediately before induction of reaction and 24 hr after the induction with a dial thickness gauge (manufactured by OZAKI MFG. CO., LTD., G-1A), and the difference between them was taken as ear edema. The ear edema suppressive rate (%) was calculated according to the following formula.
In the case of `O=C(NS(=O)(=O)c1cnn2c(Nc3ccccc3Cl)c(C(=O)N3CCC(c4ccccc4)CC3)cnc12)C1CC1` [compound a-6, N-[7-(2-chlorophenylamino)-6-(4-phenylpiperidine-1-carbonyl)pyrazolo[1,5-a]pyrimidin-3-ylsulfonyl]cyclopropanecarboxamide], the “ear edema suppressive rate (%)” value is listed as 30%.

In the case of `CCNC(=O)NS(=O)(=O)c1cnn2c(Nc3cc(C)ccc3Cl)c(C(=O)N3CCC(c4ccc(F)cc4)CC3)cnc12` [compound a-14, 7-(2-chloro-5-methylphenylamino)-N-(ethylcarbamoyl)-6-[4-(4-fluorophenyl)piperidine-1-carbonyl]pyrazolo[1,5-a]pyrimidine-3-sulfonamide], the “ear edema suppressive rate (%)” value is 25%.

On to `CCNC(=O)NS(=O)(=O)c1cnn2c(Nc3ccc(F)cc3C)c(C(=O)N3CCC4(CC3)OCc3ccccc34)cnc12` [compound a-43, 7-(4-fluoro-2-methylphenylamino)-N-(ethylcarbamoyl)-6-[3H-spiro(isobenzofuran-1,4′-piperidine)-1-carbonyl]pyrazolo[1,5-a]pyrimidine-3-sulfonamide], for which the “ear edema suppressive rate (%)” value is recorded as 40%.

Another test shares this test system. As to the kind of experiment: Suppressive action on dinitrofluorobenzene-induced ear edema reaction in mouse (Test Example 2, 50% acetone/50% ethanol solvent). It counts as in vivo. Conditions: BALE/c mice (female); test compound 1% (w/v %) in 50% acetone/50% ethanol applied to front and back of auricle 1 hr before and 3 hr after induction; auricle thickness 24 hr after induction. As to the method: 5-Week old BALE/c mice (female, supplied by CHARLES RIVER LABORATORIES JAPAN, INC) were purchased and, after quarantine and habituation, those showing satisfactory body weight increase and free of abnormal appearance were used to start the test from 7 weeks of age. The animals were housed and bred in plastic cages (6 mice per cage) in a breeding chamber set at room temperature 19-25° C., humidity 30-70%, 12 hr illumination per day (7 a.m.-7 p.m.), with free access to a commercially available solid feed and water.
as §1, with “dissolved in 50% acetone/50% ethanol (w/v %) to the” for “dissolved in acetone to the”
as §2, with “50% acetone/50% ethanol (w/v %)” for “acetone”
With `CCC(=O)NS(=O)(=O)c1cnn2c(Nc3cc(Cl)ccc3Cl)c(C(=O)N3CCC(c4ccc(F)cc4)CC3)cnc12` [compound a-22, N-{7-(2,5-dichlorophenylamino)-6-[4-(4-fluorophenyl)piperidine-1-carbonyl]pyrazolo[1,5-a]pyrimidin-3-ylsulfonyl}propionamide], the “ear edema suppressive rate (%)” value was determined as 16%.

Take `CCC(=O)NS(=O)(=O)c1cnn2c(Nc3cc(C)ccc3Cl)c(C(=O)N3CC4(C3)CN(c3ccc(F)cc3)C4)cnc12` [compound a-60, N-{7-(2-chloro-5-methylphenylamino)-6-[6-(4-fluorophenyl)-2,6-diazaspiro[3,3]heptane-2-carbonyl]pyrazolo[1,5-a]pyrimidin-3-ylsulfonyl}propionamide]: the “ear edema suppressive rate (%)” value came to 5%.

In the case of `CONS(=O)(=O)c1cnn2c(Nc3cc(Cl)ccc3Cl)c(C(=O)N3CCC(c4ccc(F)cc4)CC3)cnc12` [compound a-27, 7-(2,5-dichlorophenylamino)-6-[4-(4-fluorophenyl)piperidine-1-carbonyl]-N-methoxypyrazolo[1,5-a]pyrimidine-3-sulfonamide], the “ear edema suppressive rate (%)” value came to 47%.

Regarding `CCC(=O)NS(=O)(=O)c1cnn2c(Nc3cc(C)c(F)cc3Cl)c(C(=O)N3CCC(c4ccc(F)cc4)CC3)cnc12` [compound a-40, N-{7-(2-chloro-4-fluoro-5-methylphenylamino)-6-[4-(4-fluorophenyl)piperidine-1-carbonyl]pyrazolo[1,5-a]pyrimidin-3-ylsulfonyl}propionamide], the “ear edema suppressive rate (%)” value came out at 32%.

The values are drawn from US8815874B2, “Pyrazolopyrimidine derivative” (Kyowa Hakko Kirin Co., Ltd., priority 2010, dated 2014).
